# Source: US11673891B2, “Imidazopyrimidine compounds and uses thereof” (Dana-Farber Cancer Institute, Inc., priority 2017, dated 2023)
# Tests used:
# human adult PBMCs = test: 9-plex multiplex cytokine assay after stimulation of adult PBMCs; format: cell-based; details: 0.1 μM-33 μM, 18 hours, 10% autologous plasma, fold-change over unstimulated control, N=4
# Protocol: Shown is a 9-plex multiplex cytokine assay after stimulation of adult peripheral blood mononuclear cells (PBMCs) with compound 037 or R848 at four different concentrations (0.1 μM-33 μM). Radar plots of immune polarizing cytokine production from human adult PBMCs stimulated for 18 hours in 10% autologous plasma, represented as fold-change over RPMI unstimulated control (N=4).
# ELISAs and Multiplex-Analyte Assays. Supernatants derived from human PBMCs and DC stimulations were assayed by ELISA for TNF (ThermoFisher Scientific; Waltham, Mass., USA). Cytokine and chemokine expression profiles (e.g., IFNγ, IL-9, IL-10, IL-12 (p70), IL-13, IL-1β, IL-23, IL-27, IL-28A, IL-33, IL-6, MIP-3α/CCL20, and TNF) in cell culture supernatants were measured using a customized Milliplex® Human Th17 Magnetic Bead Panel according to the manufacturer's instructions (Millipore, Chicago, Ill., USA). Assays were read and analyzed on the Luminex® 100/200™ System and xPOTENT® software (Luminex, Austin, Tex.). A minimum threshold was set at the minimum detectable concentration for each individual assay, defined as three standard deviations above the mean background.
# PBMCs = test: TNF AlphaLISA screen on primary human PBMCs; format: cell-based; details: robust Z score >2 in both duplicates and at least 2 of 3 donors
# Protocol: TNF AlphaLISA screen was comprised of three parts: 1) human peripheral blood collection and PBMC isolation—human adult peripheral blood was collected with written consent. PBMCs were isolated from the blood using Ficoll density gradient. PBMCs were stored at 50 million cells per vial in 1 ml RPMI containing 20% autologous plasma and 10% DMSO at −80° C. until use; 2) TNFαLISA Assay—On Day 1, PBMCs were thawed in 37° C. water bath for 3 min and washed twice with PBS. Trypan blue viable cell count was obtained and cells were resuspended to viable 6.67×10^5 cells/ml in DMEM with 10% autologous plasma. Cells were dispensed in 30 μl per well in Corning 2712 black 384-well cell culture plates (final concentration was 20,000 cells/well). Controls were added to cells manually and the test compounds were added by robotic pin transfer. Plates were then incubated at 37° C./5% CO2 humidity-controlled incubator for 18 hours. On Day 2 of the assay, plates were centrifuged and 2 μl supernatants were collected into Perkin Elmer Alpha plates. Perkin Elmer Human TNFα kits (cat #AL208F) were used to detect the presence of TNFα in supernatants.
# TNFαLISA Assay. Human adult peripheral blood was collected according to approved protocols. […] Viability was assessed by trypan blue staining and cells were then resuspended to 6.67×10^5 viable cells/mL in DMEM with 10% autologous plasma. […]
structure (smiles),measurement,setting,value
CCC(C(=O)Nc1cc(-c2cn3cccnc3n2)ccc1C)c1ccccc1 (centres unmarked) [Compound 37],"Cytokine response, 9-plex multiplex (in words)",human adult PBMCs,induced a broad concentration-dependent cytokine response
same,Hit in PBMC TNFαLISA screen (in words),PBMCs,identified in the PBMC TNFαLISA screen
